In patent publication US20160309764A1, “FOOD COMPOSITION COMPRISING FERROUS PICOLINATE” (NESTEC S.A., priority 2013, published 2016):
“Also recorded” adds a separate entry of the source.

Assays:
[1] = Colour difference of iron fortified strawberry-banana yoghurt after flash pasteurization versus yoghurt with no iron salts (CIELAB); type: physicochemical; details: approx. 0.8 mg iron per 100 g, pasteurized at 105° C. for 2 minutes
Procedure: Commercial yoghurt, Nestlé Jogolino™ Strawberry/Banana yoghurt containing 15% banana puree and 10% strawberry puree was iron fortified by the addition of different iron salts to 5 kg yoghurt as reported in the table below. The amounts were chosen to provide approximately 0.8 mg iron per 100 g yoghurt. […] Colour measurements were performed in 1×1 cm polystyrene cuvettes using an X-Rite ColorEye 7000A colorimeter. The colorimeter was set up with a D65 light source, 10 degree observer angle and with specular component included. The colour difference between the yoghurt with no iron salts and the iron fortified yoghurt was measured for each iron salt and expressed as ΔEab* using the CIELAB colour scale.

[2] = Colour change of fortified pasteurized yoghurts on storage at 37° C. versus colour immediately after pasteurization (CIELAB); type: physicochemical; details: stored at 37° C.; for ΔEab* day 7: day 7, versus colour immediately after pasteurization; for ΔEab* day 30: day 30, versus colour immediately after pasteurization; for ΔEab* day 60: day 60, versus colour immediately after pasteurization; for ΔEab* day 120: day 120, versus colour immediately after pasteurization

Molecule | ΔEab* [1] | ΔEab* day 7 [2] | ΔEab* day 30 [2] | ΔEab* day 60 [2] | ΔEab* day 120 [2] | ΔEab* ([1]; listed as ferrous picolinate) | colour change over time ([2]; up to 120 days, compared with the other iron salts) | ΔEab* day 30 ([2]; listed as ferrous sulphate)
O=C([O-])CN(CCN(CC(=O)[O-])CC(=O)[O-])CC(=O)[O-].[Fe+3].[Na+] [NaFeEDTA × H2O, ferric sodium EDTA] | 3.11 | 0.96 | 4.16 | 6.93 | 9.37 |  |  | 
Ferrous picolinate | 1.28 | 0.51 | 2.18 | 4.66 | 8.19 | closer in colour to unfortified yoghurts; also recorded: closest colour to the yoghurt with no added iron | smaller than the yoghurts fortified by the other iron salts | 
O=S(=O)([O-])[O-].[Fe+2] [FeSO4 × H2O, Ferrous sulphate] | 4.74 | 0.78 | 3.27 | 5.91 | 10.34 |  |  | much greater colour changes
